PMC5062114, “Dual-targeting anti-angiogenic cyclic peptides as potential drug leads for cancer therapy” (Scientific Reports, 2016)
Read-outs that look alike come from different tables or passages of the source. Bridge positions count the residues as written; N and C are the ends. Square brackets hold non-standard residues; d marks the D form. Peptide text beside a SMILES is read from it.

How the values were obtained:
[1] = Peptide stability assay in human serum; settings: human serum, 300 μM, 24 h, RP-HPLC peak height at 215 nm, triplicate
Description: Figure 6 Chorionallantoic membrane and stability assays. (A) Comparison of blood vessel count of the linear and grafted peptides. Error bars indicate ± SD (n ≥ 6). […] A one-way ANOVA with Dunnett’s post-test using a multiple comparison test was used for statistical analysis. […] All peptides were compared to 0.3 nM VEGF (highlighted in grey), which is represented as 100% blood vessel growth. […] VEGF was used as the positive control, and octreotide and cilengitide as the negative controls. All images were taken with an original magnification of x16 on an Olympus SZX12 dissecting microscope with a light box. DP capture and DP manager software packages were used during image acquisition. (C) This graph illustrates the percentage of peptide remaining over 24 h in the serum stability assay. […] All data are represented as mean ± SD and were recorded in triplicate. Peptides labeled with an asterisk (*) were tested using the same method except with an additional step – dissolving the centrifuged pellet with 8 M guanidinium chloride before RP-HPLC analysis.
The overall procedures used to assess peptide stability are based on those described previously by Chan et al.[18] and Ji et al.[19]. A peptide concentration of 300 μM was used, and time points taken at 0, 2, 4, 8, 16, and 24 h. The stability of sunitinib was also examined using this method, except an additional step was added after the final centrifugation step, whereby the pellet was dissolved in 8 M guanidine hydrochloride (300 μL) prior to analysis with RP-HPLC; this additional step was adapted from Ji et al.[19]. Supernantants were analyzed on an Agilent RP-HPLC using a linear 1%/min gradient of 0–50% solvent B with a 0.3 mL/min Phenomenex column. Peak height was used for integration of data at 215 nm and each experiment was performed in triplicate.

HT-29 = experiment: cells
Description: (§1) HUVECs (human umbilical vein endothelial cells) were cultured in EGM™-2 BulletKit™ supplemented with SingleQuots™ (supplements: growth factors, cytokines, antibiotics; Lonza) and 10% FBS (catalog no. FFBS-500; Scientifix). Both HT-29 and MCF-7 cells were cultured in 10% FBS/DMEM (Dulbecco’s Modified Eagle Medium) with 1% penicillin–streptomycin (5000 U/mL; Life Technologies), whereas PC3 cells (prostate cancer cells) were cultured in 10% FBS/RPMI (Roswell Park Memorial Institute) 1640 with 1% penicillin–streptomycin (5000 U/mL; Life Technologies). All cells were maintained at 37 °C in 5% CO2.
(§2) Cell cytotoxicity and proliferation assays were performed using similar methods to those described by Chan et al.[45]. All cells were maintained using the media conditions described above, and passages two to ten were used for all cell lines. For all cell lines, 5.0 × 10^3 cells/well (100 μL) and 1.5 × 10^3 cells/well (100 μL) were used for cell cytotoxicity and cell proliferation assays, respectively. All peptides (10 μL, at final concentrations ranging from 0.05–100 μM) and drugs, which included cilengitide, octreotide and sunitinib (at final concentrations ranging from 0.00001–100 μM), were used in both assays. Triton X-100 (0.1% (v/v); 10 μL) was used as a positive control. Cells were treated with fresh media the day after plating, before the addition of peptides, followed by a subsequent 2-h and 48-h incubation for cell cytotoxicity and cell proliferation, respectively. After different incubation periods, 3-(4, 5-dimethylthiazolyl-2)-2,5-diphenyltetrazolium bromide (MTT) (10 μL; 5 mg/mL in PBS) was added, and cells were incubated for a further 4 h. The supernatant was then removed and 100 μL DMSO added to solubilize formazan salts. Experiments were performed in triplicate. Cell numbers were recorded at 600 nm. All data represent average mean ± SD.

HUVEC = experiment: cells
Description: as §1, §2

PC3 = experiment: cells
Description: as §1, §2

MCF-7 = experiment: cells
Description: as §1, §2

[2] = read-out: IC50 ± S.D., 48 hours, HT-29, cell proliferation inhibition, MTT, 48-h incubation, 1.5 × 10^3 cells/well, triplicate, mean ± SD
[3] = read-out: IC50 ± S.D., 48 hours, HUVEC, cell proliferation inhibition, MTT, 48-h incubation, 1.5 × 10^3 cells/well, triplicate, mean ± SD
[4] = read-out: IC50 ± S.D., 48 hours, PC3, cell proliferation inhibition, MTT, 48-h incubation, 1.5 × 10^3 cells/well, triplicate, mean ± SD
[5] = read-out: IC50 ± S.D., 48 hours, MCF-7, cell proliferation inhibition, MTT, 48-h incubation, 1.5 × 10^3 cells/well, triplicate, mean ± SD

Structure (SMILES)	stability in human serum over 24 h [1]	IC50 (HT-29; 4 h) [µM]	IC50 (HUVEC; 4 h) [µM]	IC50 (PC3; 4 h) [µM]	IC50 (MCF-7; 4 h) [µM]	IC50 (HT-29; [2]) [µM]	IC50 (HUVEC; [3]) [µM]	IC50 (PC3; [4]) [µM]	IC50 (MCF-7; [5]) [µM]
CC(C)[C@H](NC(=O)[C@H](CCCCN)NC(=O)[C@@H](Cc1c[nH]c2ccccc12)NC(=O)[C@@H](N)Cc1ccc(O)cc1)C(=O)O [SST-01, reference compound] (H-Y[dW]KV-OH; N-terminus assumed)	more stable than PEDF	> 100	57.54 ± 0.04	> 100	> 100				
CC[C@H](C)[C@@H]1NC(=O)[C@@H]2CSSC[C@@H]3NC(=O)[C@H](Cc4ccccc4)NC(=O)[C@@H]4CCCN4C(=O)[C@H](CCC(N)=O)NC(=O)[C@H](CC(N)=O)NC(=O)[C@H](CC(C)C)NC(=O)[C@H](Cc4c[nH]cn4)NC(=O)[C@H](Cc4ccc(O)cc4)NC(=O)[C@@H]4CSSC[C@H](NC(=O)[C@H](CC(=O)O)NC(=O)[C@H](CO)NC(=O)[C@H](CC(=O)O)NC(=O)[C@H](CCCNC(=N)N)NC(=O)[C@H](CCCNC(=N)N)NC(=O)[C@H](CSSC[C@H](NC1=O)C(=O)N[C@@H](CCCNC(=N)N)C(=O)NCC(=O)N[C@@H](CC(N)=O)C(=O)NCC(=O)N[C@@H](Cc1ccc(O)cc1)C(=O)N4)NC(=O)[C@H](CCCCN)NC(=O)[C@H](CCCCN)NC(=O)[C@H](CC(C)C)NC(=O)[C@H]([C@@H](C)CC)NC(=O)[C@H](CCCCN)NC(=O)[C@@H]1CCCN1C3=O)C(=O)N1CCC[C@H]1C(=O)NCC(=O)N[C@@H](C)C(=O)N2 [MCo-PEDF] (cyclo(ACICRGNGYCYHLNQPFCPKILKKCRRDSDCPG); disulfide 2-18, 4-25, 10-31)						35.22 ± 0.08	50.16 ± 0.15	39.11 ± 0.07	53.44 ± 0.14
CC[C@H](C)[C@@H]1NC(=O)[C@@H]2CSSC[C@@H]3NC(=O)CNC(=O)[C@H](CCCNC(=N)N)NC(=O)[C@H](CCCNC(=N)N)NC(=O)[C@H](CCCNC(=N)N)NC(=O)[C@H](CCCCN)NC(=O)[C@H](CCCNC(=N)N)NC(=O)[C@H](CCCNC(=N)N)NC(=O)CNC(=O)[C@@H]4CSSC[C@H](NC(=O)[C@H](CC(=O)O)NC(=O)[C@H](CO)NC(=O)[C@H](CC(=O)O)NC(=O)[C@H](CCCNC(=N)N)NC(=O)[C@H](CCCNC(=N)N)NC(=O)[C@H](CSSC[C@H](NC1=O)C(=O)N[C@@H](CCCNC(=N)N)C(=O)NCC(=O)N[C@@H](CC(N)=O)C(=O)NCC(=O)N[C@@H](Cc1ccc(O)cc1)C(=O)N4)NC(=O)[C@H](CCCCN)NC(=O)[C@H](CCCCN)NC(=O)[C@H](CC(C)C)NC(=O)[C@H]([C@@H](C)CC)NC(=O)[C@H](CCCCN)NC(=O)[C@@H]1CCCN1C3=O)C(=O)N1CCC[C@H]1C(=O)NCC(=O)N[C@@H](C)C(=O)N2 [MCo-polyR-L6] (cyclo(ACICRGNGYCGRRKRRRGCPKILKKCRRDSDCPG); disulfide 2-19, 4-26, 10-32)						52.89 ± 0.11	34.95 ± 0.03	> 100	> 100
CC[C@H](C)[C@@H]1NC(=O)[C@@H]2CCCN2C(=O)[C@@H]2CCCN2C(=O)[C@H]([C@@H](C)CC)NC(=O)[C@H](CO)NC(=O)[C@H](CCCCN)NC(=O)[C@H]([C@@H](C)O)NC(=O)[C@@H]2CSSC[C@H](NC1=O)C(=O)N[C@@H](Cc1ccc(O)cc1)C(=O)N[C@@H](Cc1c[nH]cn1)C(=O)N[C@@H](CC(C)C)C(=O)N[C@@H](CC(N)=O)C(=O)N[C@@H](CCC(N)=O)C(=O)N1CCC[C@H]1C(=O)N[C@@H](Cc1ccccc1)C(=O)N2 [SFTI-PEDF] (cyclo(CTKSIPPICYHLNQPF); disulfide 1-9)						> 100	27.89 ± 0.11	> 100	> 100
CC[C@H](C)[C@@H]1NC(=O)[C@H](CCCNC(=N)N)NC(=O)[C@H](CCCNC(=N)N)NC(=O)[C@H](CCCNC(=N)N)NC(=O)[C@H](CCCCN)NC(=O)[C@H](CCCNC(=N)N)NC(=O)[C@H](CCCNC(=N)N)NC(=O)[C@@H]2CSSC[C@H](NC1=O)C(=O)N[C@@H](Cc1ccccc1)C(=O)N1CCC[C@H]1C(=O)N[C@@H](CC(=O)O)C(=O)NCC(=O)N[C@@H](CCCNC(=N)N)C(=O)N2 [SFTI-polyR-L1] (cyclo(CFPDGRCRRKRRRI); disulfide 1-7)						82.27 ± 0.13	> 100	> 100	28.72 ± 0.15
CC[C@H](C)[C@@H]1NC(=O)[C@@H]2CCCN2C(=O)[C@@H]2CCCN2C(=O)[C@H]([C@@H](C)CC)NC(=O)[C@H](CO)NC(=O)[C@H](CCCCN)NC(=O)[C@H]([C@@H](C)O)NC(=O)[C@@H]2CSSC[C@H](NC1=O)C(=O)N[C@@H](CCCNC(=N)N)C(=O)N[C@@H](Cc1ccccc1)C(=O)N[C@H](Cc1c[nH]c3ccccc13)C(=O)N[C@@H](CCCCN)C(=O)N[C@@H]([C@@H](C)O)C(=O)N[C@@H](Cc1c[nH]c3ccccc13)C(=O)N2 [SFTI-SST-02] (cyclo(CRF[dW]KTWCTKSIPPI); disulfide 1-8)						43.29 ± 0.04	> 100	> 100	55.13 ± 0.07
CC[C@H](C)[C@@H]1NC(=O)[C@@H]2CCCN2C(=O)[C@@H]2CCCN2C(=O)[C@H]([C@@H](C)CC)NC(=O)[C@H](CO)NC(=O)[C@H](CCCCN)NC(=O)[C@H]([C@@H](C)O)NC(=O)[C@@H]2CSSC[C@H](NC1=O)C(=O)N[C@@H](Cc1ccccc1)C(=O)N1CCC[C@H]1C(=O)N[C@@H](CC(=O)O)C(=O)NCC(=O)N[C@@H](CCCNC(=N)N)C(=O)N2 [SFTI-1, sunflower trypsin inhibitor-1, reference compound]						> 100	> 100	> 100	> 100
CC[C@H](C)[C@@H]1NC(=O)[C@@H]2CSSC[C@@H]3NC(=O)[C@H](Cc4c[nH]c5ccccc45)NC(=O)[C@H]([C@@H](C)O)NC(=O)[C@H](CCCCN)NC(=O)[C@@H](Cc4c[nH]c5ccccc45)NC(=O)[C@H](Cc4ccccc4)NC(=O)[C@H](CCCNC(=N)N)NC(=O)[C@@H]4CSSC[C@H](NC(=O)[C@H](CC(=O)O)NC(=O)[C@H](CO)NC(=O)[C@H](CC(=O)O)NC(=O)[C@H](CCCNC(=N)N)NC(=O)[C@H](CCCNC(=N)N)NC(=O)[C@H](CSSC[C@H](NC1=O)C(=O)N[C@@H](CCCNC(=N)N)C(=O)NCC(=O)N[C@@H](CC(N)=O)C(=O)NCC(=O)N[C@@H](Cc1ccc(O)cc1)C(=O)N4)NC(=O)[C@H](CCCCN)NC(=O)[C@H](CCCCN)NC(=O)[C@H](CC(C)C)NC(=O)[C@H]([C@@H](C)CC)NC(=O)[C@H](CCCCN)NC(=O)[C@@H]1CCCN1C3=O)C(=O)N1CCC[C@H]1C(=O)NCC(=O)N[C@@H](C)C(=O)N2 [MCo-SST-02] (cyclo(ACICRGNGYCRF[dW]KTWCPKILKKCRRDSDCPG); disulfide 2-17, 4-24, 10-30)						58.89 ± 0.09	> 100	83.55 ± 0.2	70.61 ± 0.11
